Assay results as given in article PMC11604048, “Constrained TACC3 peptidomimetics for a non-canonical protein–protein interface elucidate allosteric communication in Aurora-A kinase” (Chemical Science, 2024).
Read-outs that look alike come from different tables or passages of the source. Values belong to the compound of their own block, whether it stands above or below them. *1 amine or outer side, *2 acyl side, *3 side chain or, on linkers, in order; H or OH if unused. Where a SMILES comes first, the peptide text is derived from it. Bridges are numbered along the chain shown (N, C = ends). [ ]: non-standard residue; d: D form. Biphenyl(4,4'-CH2)2 = c1cc(-c2ccc(C[*:2])cc2)ccc1C[*:1]; Maleimide(3,4-diyl) = O=C1NC(=O)C([*:2])=C1[*:1]; Pro(trans-4-F) = O=C(O)[C@@H]1C[C@@H](F)CN1; Phe(4-Br) = N[C@@H](Cc1ccc(Br)cc1)C(=O)O

Biological target: T1, Aurora-A122-403-C290A/C393A (Homo sapiens, UniProt O14965, C290A/C393A)
T1 construct: Human Aurora-A kinase domain 122-403 wild-type or C290A/ C393A mutant; His tag (pET30TEV vector) (N, cleaved yes); made in house; host or cells: E. coli RIL, co-expressed with lambda phosphatase (Aurora-A); tracer by solid phase synthesis
T1 sequence (O14965 122-403 C290A/C393A): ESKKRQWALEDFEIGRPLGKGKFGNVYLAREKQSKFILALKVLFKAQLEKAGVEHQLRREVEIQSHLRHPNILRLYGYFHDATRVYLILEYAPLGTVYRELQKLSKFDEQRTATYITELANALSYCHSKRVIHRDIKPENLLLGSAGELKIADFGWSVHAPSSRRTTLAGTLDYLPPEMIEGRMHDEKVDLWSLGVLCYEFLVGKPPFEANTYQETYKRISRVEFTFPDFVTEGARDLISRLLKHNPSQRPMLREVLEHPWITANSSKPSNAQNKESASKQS
Assay: Competition FA assay against FAM-Ahx-TACC3 522-536 tracer
Type: binding
Method: Once completed, the mixtures were transferred into SPPS fritted reaction vessels and washed with H2O (5X, 10 mL, 2 min), DMF (5X, 5mL, 2 min) and DCM (5X, 5 mL, 2 min). The clean resins were dried under vacuum and the cyclic peptides cleaved from the resin following the general procedures described in previous sections. After Et2O precipitation, the crude materials were freeze-dried and redissolved in H2O/MeCN/TFA 90/10/0.1% v/v for preparative HPLC purification.
All disulfide peptide variants (ox) were produced in situ from their free-thiol solid precursors. For this, 2 mg of the pure peptide materials were dissolved in aqueous DMSO 33% v/v to a 10 mM concentration and were left open to air oxidation at room temperature overnight. […]
the peptides were employed for FA competition assays and IC50 evaluation without further additional […]
Fluorescence anisotropy (FA) assays – General information.
All assays were performed using 384-well plates(Greiner Bio-one, UK). […]
produced as described previously.11 All samples were prepared in 25 mM Tris,150 mM NaCl, 5 mM MgCl2, pH= 7.5, unless otherwise stated, and tested in triplicate using an EnVisionTM 2103 MultiLabel plate reader (PerkinElmer; Waltham, MA, USA).The parameters were set as follows: Excitation wavelength = 480 nm (30 nm bandwidth) and emission wavelength = 535 nm (30 nm bandwidth). Measured data were processed and analysed as previously described.12 Specifically, the perpendicular intensity (P) and parallel intensity (S) were subtracted by the control values and used for calculations of intensity and anisotropy using the following Equations 1, 2, 3, 4, and 5:
I= (2PG) + S Eq. (SI − 5)
r = (S − PG) Eq. (SI − 6)
L = r − r௠௜௡ Eq. (SI − 7)
y = (k + x + [FL]) − ඥ(k + x + [FL]2 − 4 ∗ x ∗ [FL]) Eq. (SI − 8)
y = r + r௠௜௡ − r௠௔௫ Eq. (SI − 9)
Where I = total intensity; P = perpendicular intensity; S = parallel intensity; G = instrument factor; r = anisotropy; Lb = ligand bound fraction; λ = change in intensity between bound and unbound states which […]
FA direct binding assays. […]
starting from 700 μM, diluted over 24 points in a 1/2 regime using the FAM-Ahx-labeled peptides at a final fixed concentration of 50 nM per well.
FA competition assays were performed using the same plates and buffer as described above, with the initial […]
14 points in a 1/2 regime. […]
after 4 h of incubation to enable appropriate sample equilibration. To prevent sample oxidation, when sulfhydryl peptides were analyzed DTT was added to the buffer (5 mM). In competition mode, the average anisotropy and the average standard deviation of the values derived from equation SI-6 were calculated and fit to a sigmoidal logistic model (equation SI-9) using Origin 2021. When using peptides for which full […]
For consistency, all the data […]
indicating the corresponding SD. […]

[1] = as E1, oxidised (disulfide) species made in situ from 10 mM stock in aqueous DMSO 33% v/v, air, overnight, WT control (+DMSO) given the same DMSO incubation, mean ± SD, n = 3, read-out: IC50 (ox)
[2] = as E1, Table S3 (mal): maleimide-constrained species, WT value is an individual replica control assay, mean ± SD, n = 3, read-out: IC50 (mal)

Compound: CC(=O)N[C@@H](CCC(=O)O)C(=O)N[C@@H](CCC(=O)O)C(=O)N[C@@H](CO)C(=O)N[C@@H](Cc1ccc(C(F)(F)F)cc1)C(=O)N[C@@H](CCCNC(=N)N)C(=O)N[C@@H](CC(=O)O)C(=O)N1CCC[C@H]1C(=O)N[C@@H](C)C(=O)N[C@@H](CCC(=O)O)C(=O)N[C@H](C(=O)N[C@@H](CC(C)C)C(=O)NCC(=O)N[C@H](C(=O)NCC(=O)N[C@@H](C)C(N)=O)[C@@H](C)O)C(C)C [TACC3 522-536_(4-CF3)525F]
IC50 (SD, read-out: IC50): 170 ± 17 µM

Compound: CC(=O)N[C@@H](CCC(=O)O)C(=O)N[C@@H](CCC(=O)O)C(=O)N[C@@H](CO)C(=O)N[C@@H](Cc1ccccc1)C(=O)N[C@H]1CSC2=C(SC[C@@H](C(=O)N[C@@H](CCC(=O)O)C(=O)N[C@H](C(=O)N[C@@H](CC(C)C)C(=O)NCC(=O)N[C@H](C(=O)NCC(=O)N[C@@H](C)C(N)=O)[C@@H](C)O)C(C)C)NC(=O)[C@@H]3CCCN3C(=O)[C@H](CC(=O)O)NC1=O)C(=O)NC2=O [TACC3 522-536 R526C/A529C (mal)] (Ac-EESFCDPCEVLGTGA-NH2; linker 5-8 via Maleimide(3,4-diyl) (inferred))
IC50 [2]: ≥ 500 µM

Compound: CC(=O)N[C@@H](CCC(=O)O)C(=O)N[C@@H](CCC(=O)O)C(=O)N[C@@H](CO)C(=O)N[C@@H](Cc1ccccc1)C(=O)N[C@@H](CCCNC(=N)N)C(=O)N[C@@H](CC(=O)O)C(=O)N[C@@H](CS)C(=O)N[C@@H](C)C(=O)N[C@@H](CCC(=O)O)C(=O)N[C@@H](CS)C(=O)N[C@@H](CC(C)C)C(=O)NCC(=O)N[C@H](C(=O)NCC(=O)N[C@@H](C)C(N)=O)[C@@H](C)O [TACC3 522-536 P528C/V531C (red)] (Ac-EESFRDCAECLGTGA-NH2)
IC50 (as E1, free-sulfhydryl (reduced) species, DTT 5 mM in buffer, WT control (+DTT), mean ± SD, n = 3, read-out: IC50 (red)): ≥ 500 µM

Compound: CC(=O)N[C@@H](CC(C)C)C(=O)N[C@@H](CCC(=O)O)C(=O)N[C@H]1CSCc2ccc(cc2)-c2ccc(cc2)CSC[C@@H](C(=O)N[C@@H](CC(=O)O)C(=O)N2CCC[C@H]2C(=O)N[C@@H](C)C(=O)N[C@@H](CCC(=O)O)C(=O)N[C@H](C(=O)N[C@@H](CC(C)C)C(N)=O)C(C)C)NC(=O)[C@H](Cc2ccccc2)NC(=O)[C@H](CO)NC(=O)[C@H](CCC(=O)O)NC(=O)[C@H](CCC(=O)O)NC(=O)[C@H](CCCCN)NC1=O [TACC3 518-532 L520C/R526C (Bph)] (Ac-LECKEESFCDPAEVL-NH2; linker 3-9 via Biphenyl(4,4'-CH2)2)
fold enhanced inhibitory potency (IC50) compared to the WT peptide (competition FA IC50 ratio vs WT): up to 4 fold

Compound: CC(=O)N[C@@H](CCC(=O)O)C(=O)N[C@@H](CCC(=O)O)C(=O)N[C@@H](CO)C(=O)N[C@@H](Cc1ccc(Br)cc1)C(=O)N[C@@H](CCCNC(=N)N)C(=O)N[C@@H](CC(=O)O)C(=O)N1CCC[C@H]1C(=O)N[C@@H](C)C(=O)N[C@@H](CCC(=O)O)C(=O)N[C@H](C(=O)N[C@@H](CC(C)C)C(=O)NCC(=O)N[C@H](C(=O)NCC(=O)N[C@@H](C)C(N)=O)[C@@H](C)O)C(C)C [TACC3 522-536_(4-Br)525F]
IC50 (SD, read-out: IC50): 34 ± 6 µM

Compound: CC(=O)N[C@@H](CCC(=O)O)C(=O)N[C@@H](CCC(=O)O)C(=O)N[C@@H](CO)C(=O)N[C@@H](Cc1ccccc1)C(=O)N[C@@H](CS)C(=O)N[C@@H](CC(=O)O)C(=O)N1CCC[C@H]1C(=O)N[C@@H](CS)C(=O)N[C@@H](CCC(=O)O)C(=O)N[C@H](C(=O)N[C@@H](CC(C)C)C(=O)NCC(=O)N[C@H](C(=O)NCC(=O)N[C@@H](C)C(N)=O)[C@@H](C)O)C(C)C [TACC3 522-536 R526C/A529C (red)] (Ac-EESFCDPCEVLGTGA-NH2)
IC50 (as E1, free-sulfhydryl (reduced) species, DTT 5 mM in buffer, WT control (+DTT), mean ± SD, n = 3, SD, read-out: IC50 (red)): 352 ± 45 µM

Next, values leading:

IC50 [1]: ≥ 500 µM
Compound: CC(=O)N[C@@H](CCC(=O)O)C(=O)N[C@@H](CCC(=O)O)C(=O)N[C@@H](CO)C(=O)N[C@@H](Cc1ccccc1)C(=O)N[C@@H](CCCNC(=N)N)C(=O)N[C@H]1CSSC[C@@H](C(=O)N[C@H](C(=O)N[C@@H](CC(C)C)C(=O)NCC(=O)N[C@H](C(=O)NCC(=O)N[C@@H](C)C(N)=O)[C@@H](C)O)C(C)C)NC(=O)[C@H](C)NC(=O)[C@@H]2CCCN2C1=O [TACC3 522-536 D527C/E530C (ox)] (Ac-EESFRCPACVLGTGA-NH2; disulfide 6-9)

IC50 (read-out: IC50): ≥ 300 µM
Compound: Ac-EESFRDPAEILGTGA-NH2 [TACC3 522-536_V531I]

IC50 (SD, read-out: IC50): 22 ± 1 µM
Compound: CC(=O)N[C@@H](CC(C)C)C(=O)N[C@@H](CCC(=O)O)C(=O)N[C@H]1CSCc2ccc(cc2)-c2ccc(cc2)CSC[C@@H](C(=O)N[C@@H](CC(=O)O)C(=O)N2C[C@H](F)C[C@H]2C(=O)N[C@@H](C)C(=O)N[C@@H](CCC(=O)O)C(=O)N[C@H](C(=O)N[C@@H](CC(C)C)C(N)=O)C(C)C)NC(=O)[C@H](Cc2ccc(Br)cc2)NC(=O)[C@H](CO)NC(=O)[C@H](CCC(=O)O)NC(=O)[C@H](CCC(=O)O)NC(=O)[C@H](CCCCN)NC1=O [TACC3 518-532-L/R-Bph-BrF/fP] (Ac-LECKEES[Phe(4-Br)]CD[Pro(trans-4-F)]AEVL-NH2; linker 3-9 via Biphenyl(4,4'-CH2)2)

IC50 (SD, read-out: IC50): 138 ± 8 µM
Compound: CC(=O)N[C@@H](CCC(=O)O)C(=O)N[C@@H](CCC(=O)O)C(=O)N[C@@H](CO)C(=O)N[C@@H](Cc1ccc(C#N)cc1)C(=O)N[C@@H](CCCNC(=N)N)C(=O)N[C@@H](CC(=O)O)C(=O)N1CCC[C@H]1C(=O)N[C@@H](C)C(=O)N[C@@H](CCC(=O)O)C(=O)N[C@H](C(=O)N[C@@H](CC(C)C)C(=O)NCC(=O)N[C@H](C(=O)NCC(=O)N[C@@H](C)C(N)=O)[C@@H](C)O)C(C)C [TACC3 522-536_(4-CN) -525F]

IC50 [1]: ≥ 500 µM
Compound: CC(=O)N[C@@H](CCC(=O)O)C(=O)N[C@@H](CCC(=O)O)C(=O)N[C@@H](CO)C(=O)N[C@@H](Cc1ccccc1)C(=O)N[C@@H](CCCNC(=N)N)C(=O)N[C@@H](CC(=O)O)C(=O)N1CCC[C@H]1C(=O)N[C@@H](C)C(=O)N[C@H]1CSSC[C@@H](C(=O)N[C@H](C(=O)NCC(=O)N[C@@H](C)C(N)=O)[C@@H](C)O)NC(=O)[C@H](CC(C)C)NC(=O)[C@H](C(C)C)NC1=O [TACC3 522-536 E530C/G533C (ox)] (Ac-EESFRDPACVLCTGA-NH2; disulfide 9-12)

IC50 [2]: ≥ 500 µM
Compound: CC(=O)N[C@@H](CCC(=O)O)C(=O)N[C@@H](CCC(=O)O)C(=O)N[C@H]1CSC2=C(SC[C@@H](C(=O)N3CCC[C@H]3C(=O)N[C@@H](C)C(=O)N[C@@H](CCC(=O)O)C(=O)N[C@H](C(=O)N[C@@H](CC(C)C)C(=O)NCC(=O)N[C@H](C(=O)NCC(=O)N[C@@H](C)C(N)=O)[C@@H](C)O)C(C)C)NC(=O)[C@H](CCCNC(=N)N)NC(=O)[C@H](Cc3ccccc3)NC1=O)C(=O)NC2=O [TACC3 522-536 S524C/D527C (mal)] (Ac-EECFRCPAEVLGTGA-NH2; linker 3-6 via Maleimide(3,4-diyl) (inferred))

IC50 [1]: ≥ 500 µM
Compound: CC(=O)N[C@@H](CCC(=O)O)C(=O)N[C@@H](CCC(=O)O)C(=O)N[C@@H](CO)C(=O)N[C@@H](Cc1ccccc1)C(=O)N[C@@H](CCCNC(=N)N)C(=O)N[C@@H](CC(=O)O)C(=O)N1CCC[C@H]1C(=O)N[C@H]1CSSC[C@@H](C(=O)NCC(=O)N[C@H](C(=O)NCC(=O)N[C@@H](C)C(N)=O)[C@@H](C)O)NC(=O)[C@H](C(C)C)NC(=O)[C@H](CCC(=O)O)NC1=O [TACC3 522-536 A529C/L532C (ox)] (Ac-EESFRDPCEVCGTGA-NH2; disulfide 8-11)
